# In ChEMBL document CHEMBL3352258 (J Med Chem, 2014):
# Calls of active or inactive are those of the source. The calls are words filed in the database; no cut-off is given here.
# Key:
# [1] = molecular target: T1, Glucose-dependent insulinotropic receptor (Homo sapiens) (UniProt Q8TDV5); test: Intrinsic activity at human GPR119 relative to control
# T1 sequence (whole entry): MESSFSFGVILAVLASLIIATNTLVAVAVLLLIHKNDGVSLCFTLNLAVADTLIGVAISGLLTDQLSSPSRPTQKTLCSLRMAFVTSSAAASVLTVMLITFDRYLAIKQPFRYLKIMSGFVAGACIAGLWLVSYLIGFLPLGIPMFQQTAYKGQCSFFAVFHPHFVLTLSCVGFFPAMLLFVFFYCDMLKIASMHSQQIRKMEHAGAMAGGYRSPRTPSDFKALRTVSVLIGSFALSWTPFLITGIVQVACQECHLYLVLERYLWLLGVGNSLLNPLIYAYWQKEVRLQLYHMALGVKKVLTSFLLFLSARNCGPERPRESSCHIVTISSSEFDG
# [2] = Cmax in C57BL/6 mouse at 30 mg/kg, po after 2 hrs; type: ADME, organism-based; set-up: dose 30 mg/kg, route oral; conditions: in vivo
# [3] = Protein binding in rat plasma; type: ADME, cell-free; conditions: read-out: PPB
# [4] = Permeability of the compound across human Caco2 cells; type: ADME, cell-based; conditions: Caco-2, read-out: permeability
# hERG (KCNH2) = hERG (KCNH2) (Homo sapiens, UniProt Q12809); test: Inhibition of human ERG at 10 uM by patch clamp assay
# hERG (KCNH2), sequence (Q12809 whole entry): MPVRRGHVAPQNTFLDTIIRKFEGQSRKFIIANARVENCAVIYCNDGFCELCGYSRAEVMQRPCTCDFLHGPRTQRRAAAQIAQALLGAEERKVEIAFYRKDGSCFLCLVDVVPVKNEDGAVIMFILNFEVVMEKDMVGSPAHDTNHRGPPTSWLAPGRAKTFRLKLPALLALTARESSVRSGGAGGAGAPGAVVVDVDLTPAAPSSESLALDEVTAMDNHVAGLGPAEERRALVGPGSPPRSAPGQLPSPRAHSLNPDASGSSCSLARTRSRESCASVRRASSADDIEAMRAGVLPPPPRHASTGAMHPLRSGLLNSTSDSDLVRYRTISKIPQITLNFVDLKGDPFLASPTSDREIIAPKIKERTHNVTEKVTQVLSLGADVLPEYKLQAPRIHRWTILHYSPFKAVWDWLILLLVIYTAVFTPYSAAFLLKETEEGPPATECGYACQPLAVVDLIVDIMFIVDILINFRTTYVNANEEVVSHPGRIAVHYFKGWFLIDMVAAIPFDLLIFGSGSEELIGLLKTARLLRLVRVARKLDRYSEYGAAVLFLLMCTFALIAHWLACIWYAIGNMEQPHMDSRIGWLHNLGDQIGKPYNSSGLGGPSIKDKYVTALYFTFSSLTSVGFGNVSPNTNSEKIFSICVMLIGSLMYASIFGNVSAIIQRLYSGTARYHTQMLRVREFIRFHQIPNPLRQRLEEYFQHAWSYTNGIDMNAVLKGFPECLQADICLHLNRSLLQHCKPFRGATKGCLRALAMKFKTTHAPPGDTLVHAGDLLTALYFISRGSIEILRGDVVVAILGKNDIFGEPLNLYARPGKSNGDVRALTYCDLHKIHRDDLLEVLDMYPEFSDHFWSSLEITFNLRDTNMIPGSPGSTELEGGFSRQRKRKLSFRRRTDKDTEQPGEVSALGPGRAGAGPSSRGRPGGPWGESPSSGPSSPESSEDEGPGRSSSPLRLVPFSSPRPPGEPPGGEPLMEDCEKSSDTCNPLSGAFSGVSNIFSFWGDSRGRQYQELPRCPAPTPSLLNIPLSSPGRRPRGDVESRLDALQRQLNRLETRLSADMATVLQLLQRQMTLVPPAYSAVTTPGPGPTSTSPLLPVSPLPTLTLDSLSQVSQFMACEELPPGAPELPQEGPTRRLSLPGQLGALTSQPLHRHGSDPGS
# Mus musculus [5] = test: Antidiabetic activity in db/db mouse assessed as reduction in HbA1C level at 3 mg/kg, po qd administered 1 hr prior glucose challenge measured after 21 days by oral glucose tolerance test relative to control; type: functional; set-up: scale not given: the % may be the effect or the level left
# [6] = Solubility of the compound at pH 1; type: physicochemical; conditions: buffer
# [7] = molecular target: T2, Nuclear receptor subfamily 1 group I member 2 (Homo sapiens, UniProt O75469); test: Activation of PXR (unknown origin); type: ADME
# T2 sequence (O75469 whole entry): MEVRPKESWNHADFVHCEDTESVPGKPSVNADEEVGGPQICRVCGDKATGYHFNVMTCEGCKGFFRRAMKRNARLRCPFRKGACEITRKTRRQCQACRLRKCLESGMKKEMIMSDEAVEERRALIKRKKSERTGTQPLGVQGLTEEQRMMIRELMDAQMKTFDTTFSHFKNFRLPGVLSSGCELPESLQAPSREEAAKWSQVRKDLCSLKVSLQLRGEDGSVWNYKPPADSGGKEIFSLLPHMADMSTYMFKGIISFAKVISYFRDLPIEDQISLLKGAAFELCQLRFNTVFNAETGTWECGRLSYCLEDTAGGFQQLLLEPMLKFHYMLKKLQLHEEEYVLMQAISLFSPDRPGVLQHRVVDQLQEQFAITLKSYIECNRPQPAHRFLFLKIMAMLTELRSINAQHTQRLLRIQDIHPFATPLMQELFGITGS
# Mus musculus [8] = test: Antidiabetic activity in db/db mouse assessed as reduction in HbA1C level at 0.3 mg/kg, po qd administered 1 hr prior glucose challenge measured after 21 days by oral glucose tolerance test relative to control; type: functional; set-up: scale not given: the % may be the effect or the level left
# [9] = Inhibition of cytochrome P450 (unknown origin); type: ADME, Homo sapiens
# Mus musculus [10] = test: Antidiabetic activity in db/db mouse assessed as HbA1C level at 30 mg/kg, po qd administered 1 hr prior glucose challenge measured after 21 days by oral glucose tolerance test (reference value: 2.8%); type: functional
# HepG2 = test: Cytotoxicity against human HepG2 cells at 40 uM; type: cell-based; conditions: hepg2, 40 µM
# [11] = Terminal half life in C57BL/6 mouse at 30 mg/kg, po; type: ADME, organism-based; set-up: dose 30 mg/kg, route oral; conditions: in vivo, read-out: beta t1/2 (converted)
# Mus musculus [12] = test: Antidiabetic activity in db/db mouse assessed as reduction in blood glucose level at 0.3 mg/kg, po qd administered 1 hr prior glucose challenge measured after 21 days by oral glucose tolerance test; type: functional; set-up: scale not given: the % may be the effect or the level left
# [13] = Permeability of the compound by PAMPA assay; type: ADME; conditions: read-out: permeability
# Mus musculus [14] = test: Antidiabetic activity in db/db mouse assessed as reduction in glucose AUC at 3 mg/kg, po qd administered 1 hr prior glucose challenge measured after 21 days by oral glucose tolerance test relative to control; type: functional; set-up: scale not given: the % may be the effect or the level left
# Mus musculus [15] = test: Antidiabetic activity in db/db mouse assessed as reduction in glucose AUC at 30 mg/kg, po qd administered 1 hr prior glucose challenge measured after 21 days by oral glucose tolerance test relative to control; type: functional; set-up: scale not given: the % may be the effect or the level left
# [16] = AUC in C57BL/6 mouse at 30 mg/kg, po; type: ADME, organism-based; set-up: dose 30 mg/kg, route oral; conditions: plasma
# [17] = molecular target: T3, Glucose-dependent insulinotropic receptor (Homo sapiens, UniProt Q8TDV5); test: Agonist activity at human GPR119
# T3 sequence (Q8TDV5 whole entry): T1 sequence (whole entry)
# [18] = Solubility of the compound at pH 6.5; type: physicochemical; conditions: buffer
# Homo sapiens [19] = test: Antidiabetic activity in human assessed as increase in total GLP1 AUC at 10 mg, po measured on day 1; type: functional
# Rattus norvegicus [20] = test: Cmax in Sprague-Dawley rat at 5 mg/kg, po; type: ADME, organism-based; set-up: dose 5 mg/kg, route oral; conditions: in vivo
# [21] = Terminal half life in human at 0.1 to 120 mg, po; type: ADME, organism-based; conditions: in vivo, read-out: beta t1/2 (converted)
# [22] = Volume of distribution at steady state in Sprague-Dawley rat at 1 mg/kg, iv; type: ADME, organism-based; set-up: dose 1 mg/kg, route intravenous; conditions: in vivo, read-out: Vdss
# Cynomolgus monkey = test: Toxicity in cynomolgus monkey at plasma concentration 20 uM by electrophysiology study; type: organism-based, Macaca fascicularis; conditions: in vivo
# Mus musculus [23] = test: Antidiabetic activity in C57BL/6J mouse assessed as reduction in glucose AUC at 0.3 mg/kg, po by oral glucose tolerance test relative to vehicle-treated control; type: functional; set-up: scale not given: the % may be the effect or the level left
# Oryctolagus cuniculus = species on record: Oryctolagus cuniculus; test: Toxicity in rabbit at plasma concentration 20 uM by electrophysiology study; type: organism-based; conditions: in vivo
# Mus musculus [24] = test: Antidiabetic activity in db/db mouse assessed as increase in fasting plasma insulin level at 0.01 to 0.3 mg/kg, po qd administered 1 hr prior glucose challenge measured after 21 days; type: functional, organism-based
# Homo sapiens [25] = test: Antidiabetic activity in human assessed as reduction in 24 hrs glucose AUC at 0.1 to 120 mg, po measured on day 1; type: functional, organism-based
# Homo sapiens [26] = test: Antidiabetic activity in po dosed human assessed as increase in 24 hrs GLP1 AUC measured on day 1; type: functional, organism-based
# [27] = Oral bioavailability in Sprague-Dawley rat at 5 mg/kg administered as suspension; type: ADME, organism-based; conditions: in vivo
# Mus musculus [28] = test: Antidiabetic activity in db/db mouse assessed as reduction in blood glucose level at 3 mg/kg, po qd administered 1 hr prior glucose challenge measured after 21 days by oral glucose tolerance test; type: functional; set-up: scale not given: the % may be the effect or the level left
# Rattus norvegicus [29] = test: Stimulation of glucose-induced GLP-1 release in cannulated Sprague-Dawley rat at 0.3 mg/kg, po administered 1 hr prior glucose challenge in presence of DPP4 inhibitor relative to vehicle-treated control; type: functional, organism-based; set-up: dose 0.3 mg/kg
# [30] = Protein binding in human plasma; type: ADME, cell-free; conditions: read-out: PPB (converted)
# Rattus norvegicus [31] = test: Stimulation of glucose-induced GLP-1 release in cannulated Sprague-Dawley rat at 0.3 mg/kg, po administered 1 hr prior glucose challenge relative to vehicle-treated control; type: functional, organism-based; set-up: dose 0.3 mg/kg
# Rattus norvegicus [32] = test: Half life in Sprague-Dawley rat at 5 mg/kg, po; type: ADME, organism-based; set-up: dose 5 mg/kg, route oral; conditions: in vivo
# Mus musculus [33] = test: Antidiabetic activity in C57BL/6J mouse assessed as reduction in glucose AUC at 1 mg/kg, po by oral glucose tolerance test relative to vehicle-treated control; type: functional; set-up: scale not given: the % may be the effect or the level left
# Homo sapiens [34] = test: Toxicity in human at 0.1 to 120 mg, po; type: organism-based; conditions: in vivo
# Mus musculus [35] = test: Antidiabetic activity in db/db mouse assessed as reduction in blood glucose level at 0.03 mg/kg, po qd administered 1 hr prior glucose challenge measured after 21 days by oral glucose tolerance test; type: functional; set-up: scale not given: the % may be the effect or the level left
# [36] = Oral bioavailability in Sprague-Dawley rat at 5 mg/kg administered as HMPC SDD formulation; type: ADME, organism-based; conditions: in vivo
# [37] = Solubility of the compound in 50% PEG400/ 50% PBS solution; type: physicochemical
# Salmonella typhimurium = test: Genotoxicity in Salmonella typhimurium; type: toxicity, organism-based; conditions: salmonella enterica subsp. enterica serovar typhimurium
# [38] = Half life in mouse; type: ADME, organism-based; conditions: in vivo
# [39] = Clearance in Sprague-Dawley rat at 1 mg/kg, iv; type: ADME, organism-based; set-up: dose 1 mg/kg, route intravenous; conditions: in vivo
# Rattus norvegicus [40] = test: Tmax in Sprague-Dawley rat at 5 mg/kg, po; type: ADME, organism-based; set-up: dose 5 mg/kg, route oral; conditions: in vivo
# Mus musculus [41] = test: Antidiabetic activity in C57BL/6J mouse assessed as reduction in glucose AUC at 0.03 mg/kg, po by oral glucose tolerance test relative to vehicle-treated control; type: functional; set-up: scale not given: the % may be the effect or the level left
# Mus musculus [42] = test: Antidiabetic activity in db/db mouse assessed as reduction in blood glucose level at 0.01 mg/kg, po qd administered 1 hr prior glucose challenge measured after 21 days by oral glucose tolerance test; type: functional; set-up: scale not given: the % may be the effect or the level left
# [43] = Half life in human liver microsomes; type: ADME
# Mus musculus [44] = test: Antidiabetic activity in C57BL/6J mouse assessed as reduction in glucose AUC at 0.1 mg/kg, po by oral glucose tolerance test relative to vehicle-treated control; type: functional; set-up: scale not given: the % may be the effect or the level left
# Rattus norvegicus [45] = test: AUC (total) in Sprague-Dawley rat at 5 mg/kg, po; type: ADME, organism-based, Plasma; set-up: dose 5 mg/kg, route oral; conditions: in vivo
# Mus musculus [46] = test: Antidiabetic activity in db/db mouse assessed as reduction in blood glucose level at 30 mg/kg, po qd administered 1 hr prior glucose challenge measured after 21 days by oral glucose tolerance test; type: functional; set-up: scale not given: the % may be the effect or the level left
# Homo sapiens [47] = test: Antidiabetic activity in human assessed as increase in total GLP1 AUC at 0.6 mg, po measured on day 1; type: functional
# Mus musculus [48] = test: Antidiabetic activity in db/db mouse assessed as HbA1C level at 300 mg/kg, po qd administered 1 hr prior glucose challenge measured after 21 days by oral glucose tolerance test (reference value: 2.8%); type: functional
# Mus musculus [49] = test: Antidiabetic activity in db/db mouse assessed as reduction in glucose AUC at 300 mg/kg, po qd administered 1 hr prior glucose challenge measured after 21 days by oral glucose tolerance test relative to control; type: functional; set-up: scale not given: the % may be the effect or the level left
smiles,measurement,setting,value
CCCc1cnc(N2CCC(Oc3ccn(-c4ccc(S(C)(=O)=O)cc4F)c(=O)c3)CC2)nc1,Intrinsic activity,[1],1
same,Cmax,[2],38.6 µM
same,fraction unbound,[3],0.01
same,Papp,[4],22 ×10⁻⁶ cm/s
same,inhibition at 10 µM,hERG (KCNH2),47%
same,Activity,Mus musculus [5],0.4%
same,solubility,[6],630 µg/mL
same,EC50,[7],> 50 µM
same,Activity,Mus musculus [8],0.6%
same,IC50,[9],> 40 µM
same,Activity,Mus musculus [10],1.4%
same,Activity,HepG2,Non-toxic
same,half-life,[11],2.4 h
same,Activity,Mus musculus [12],16%
same,Papp,[13],32 ×10⁻⁶ cm/s
same,Activity,Mus musculus [14],32%
same,Activity,Mus musculus [15],38%
same,AUC,[16],245 µM·h
same,EC50,[17],0.018 µM
CS(=O)(=O)c1ccc(-n2cc(Cl)c(OC3CCN(c4ncc(Cl)cn4)CC3)cc2=O)c(F)c1 [BMS-903452],solubility,[18],< 1 µg/mL
same,Activity,Homo sapiens [19],50%
same,Cmax,Rattus norvegicus [20],2.7 µM
same,half-life,[21],36 h
same,Vd,[22],2.2 L/kg
same,Activity,Cynomolgus monkey,Non-toxic
same,Activity,Mus musculus [23],39%
same,Activity,Oryctolagus cuniculus,Non-toxic
same,Activity,Mus musculus [24],Active
same,EC50,[7],> 50 µM
same,Activity,Homo sapiens [25],inactive
same,Activity,Homo sapiens [26],Dose-dependent effect
same,bioavailability,[27],33%
same,Activity,Mus musculus [28],13%
same,Activity,Rattus norvegicus [29],Active
same,fraction unbound,[30],0.005
same,Activity,Rattus norvegicus [31],Active
same,t1/2,Rattus norvegicus [32],0.367 h
same,IC50,[9],> 40 µM
same,Activity,Mus musculus [33],40%
same,Activity,Homo sapiens [34],Non-toxic
same,Activity,HepG2,Non-toxic
same,Activity,Mus musculus [35],36%
same,bioavailability,[36],87%
same,solubility,[37],41 µg/mL
same,Activity,Salmonella typhimurium,Non-toxic
same,half-life,[38],0.25 h
same,clearance,[39],1.5 mL/min/kg
same,Tmax,Rattus norvegicus [40],4 h
same,Activity,Mus musculus [41],14%
same,Activity,Mus musculus [42],18%
same,half-life,[43],1.4 h
same,Activity,Mus musculus [44],37%
same,EC50,[17],0.014 µM
same,AUC,Rattus norvegicus [45],95 µM·h
same,Activity,Mus musculus [46],38%
same,Activity,Homo sapiens [47],20%
CN(C)C(=N)NC(=N)N [METFORMIN],Activity,Mus musculus [48],1.4%
same,Activity,Mus musculus [49],83%
